Consider 11 molecules from ChEMBL document CHEMBL2311309, “Venezuelines A-G, new phenoxazine-based alkaloids and aminophenols from Streptomyces venezuelae and the regulation of gene target Nur77” (Bioorg Med Chem Lett, 2013).

Holding throughout (type): functional, cell-based
Assay [1] concerns NIH-H460. The assay can be described thus: Induction of nur77 gene expression in human NIH-H460 cells at 1 to 10 uM by RT-PCR analysis. The following applies: TDE = time-dependent effect.
The subject of assay [2] is NIH-H460. The assay can be described thus: Induction of nur77 gene expression in human NIH-H460 cells at 1 uM within 12 hrs by RT-PCR analysis.
The subject of assay [3] is NIH-H460. The assay is described as follows: Induction of nur77 gene expression in human NIH-H460 cells at 10 uM within 6 hrs by RT-PCR analysis.
A short description of assay [4]: Cytotoxicity against human NIH-H460 cells by MTT method.
Assay [5] in a line: Cytotoxicity against human […] cells by MTT method. (Tetrazolium assays rely on reduction of a dye to a coloured formazan, in cell work by metabolically active cells.)
The next assay has as its system A2780. The assay is described as follows: Cytotoxicity against human A2780 cells by MTT method.
For the next assay, the system named is HCT-8. The assay is described as follows: Cytotoxicity against human HCT8 cells by MTT method.
Another assay concerns BGC-823. The assay is described as follows: Cytotoxicity against human BGC823 cells by MTT method.
In assay [6] the test system is NIH-H460. The assay is described as follows: Induction of nur77 gene expression in human NIH-H460 cells after 6 to 12 hrs by RT-PCR analysis.
The test system of another assay is A549. The assay can be described thus: Cytotoxicity against human A549 cells by MTT method.
Assay [7] concerns NIH-H460. The assay is described as follows: Induction of nur77 gene expression in human NIH-H460 cells at 1 to 10 uM after 3 hrs by RT-PCR analysis.
For assay [8], the system named is NIH-H460. The assay is described as follows: Induction of nur77 gene expression in human NIH-H460 cells after 3 hrs by RT-PCR analysis.

The source made the active and inactive calls. The calls are words filed in the database; no cut-off is given here. Some results are limits rather than exact numbers.

By IC50 is commonly meant the concentration that gives 50% inhibition.

Turning to `CC(=O)Nc1cc2nc3cc(CO)ccc3oc-2cc1=O` [EXFOLIAZONE], the results for the Activity entry in the assay with NIH-H460 [1] and with NIH-H460 [6] were “tde” and “Dose-dependent effect”, respectively. In addition, the result in the assay on NIH-H460 [2] and in the assay with NIH-H460 [3] was Active. Further, the IC50 in assay [4] was 13.6 µM; in [5] it was greater than 10 µM; in the assay on A2780, 2.52 µM; in the assay with HCT-8, 4.89 µM; with BGC-823, 3.4 µM; in the assay on A549, 9.16 µM.

`COCc1ccc(O)c(NC(C)=O)c1` [VNEZUELINE G]: the IC50 (in assay [4]; in assay [5]; in the assay on A2780; in the assay with HCT-8; in the assay on BGC-823; with A549) was greater than 50 µg/mL each time.

Turning to `O=C(CO)Nc1cc2c(cc1OC(=O)CO)Oc1ccc(CO)cc1N2` [VNEZUELINE D], the IC50 (in assay [4]; in assay [5]; with A2780; with HCT-8; in the assay on BGC-823; in the assay with A549) was greater than 50 µg/mL throughout. Further, the outcome in the assay on NIH-H460 [7] was inactive.

As to `CC(=O)Nc1cc(COCc2ccc(O)c(NC(C)=O)c2)ccc1O` [VNEZUELINE F], the IC50 (in [4]; in assay [5]; in the assay with A2780; with HCT-8; in the assay with BGC-823; with A549) was greater than 50 µg/mL throughout.

`O=c1[nH]cc(F)c(=O)[nH]1` [FLUOROURACIL]: the IC50 in [4] is 7.12 µM; in assay [5] it was 3.85 µM; in the assay with A2780, 5.4 µM; in the assay on HCT-8, 5.38 µM; with BGC-823, 3.84 µM; with A549, 1.54 µM.

For the molecule `O=C(CO)Nc1cc2nc3cc(CO)ccc3oc-2cc1=O` [CHANDRANANIMYCIN D], the IC50 (in assay [4]; in assay [5]; in the assay on A2780; in the assay with HCT-8; with BGC-823; in the assay with A549) was greater than 30 µg/mL in each case.

For `CC(=O)Nc1cc2c(cc1OC(=O)CO)Oc1ccc(CO)cc1N2` [VNEZUELINE C], the IC50 (in assay [4]; in assay [5]; in the assay on A2780; in the assay with HCT-8; with BGC-823; in the assay on A549) was greater than 50 µg/mL in each case.

With `O=C1NC2=Nc3cc(CO)ccc3O[C@]23[C@H](O)CC[C@H]13` [VNEZUELINE B], the IC50 in [4] was 9.67 µM; in assay [5], greater than 10 µM; with A2780, 6.57 µM; in the assay with HCT-8, 5.74 µM; with BGC-823, 6.78 µM; in the assay on A549 it was 7.52 µM. The Activity result in the assay with NIH-H460 [8] is “Dose-dependent effect”.

As for `CC(=O)Nc1cc2nc3cc(C(=O)O)ccc3oc-2cc1=O` [CARBOXYEXFOLIAZONE], the IC50 (in [4]; in [5]; in the assay with A2780; with HCT-8; with BGC-823; in the assay with A549) was greater than 30 µg/mL throughout.

On to `CC(=O)Nc1cc(Cc2cc3oc4cc(=O)c(NC(C)=O)cc-4nc3cc2CO)ccc1O` [VNEZUELINE A], for which the IC50 (in [4]; in assay [5]; in the assay on A2780; with HCT-8; with BGC-823; with A549) was greater than 30 µg/mL each time.

For `CCCC(=O)OCc1ccc2oc3cc(=O)c(NC(C)=O)cc-3nc2c1` [VNEZUELINE E], the IC50 (in [4]; in [5]; in the assay on A2780; in the assay with HCT-8; with BGC-823; in the assay on A549) was greater than 30 µg/mL in each case.
